Source: paper doi:10.1101/2021.02.26.433144v1 (biorxiv, 2021)
Substitutions are numbered along the chain they refer to.

Assays:
Assay in all cases: spectrophotometric oxidation assay, non-linear regression
Details in all cases: 0.1 M sodium phosphate pH 7, 40 °C, 0-5 mM substrate
TtPPO [1] = target: T1, TtPPO (Thermothelomyces thermophilus, UniProt G2QLD3, G312N)
T1 sequence (G2QLD3 23-424 G312N): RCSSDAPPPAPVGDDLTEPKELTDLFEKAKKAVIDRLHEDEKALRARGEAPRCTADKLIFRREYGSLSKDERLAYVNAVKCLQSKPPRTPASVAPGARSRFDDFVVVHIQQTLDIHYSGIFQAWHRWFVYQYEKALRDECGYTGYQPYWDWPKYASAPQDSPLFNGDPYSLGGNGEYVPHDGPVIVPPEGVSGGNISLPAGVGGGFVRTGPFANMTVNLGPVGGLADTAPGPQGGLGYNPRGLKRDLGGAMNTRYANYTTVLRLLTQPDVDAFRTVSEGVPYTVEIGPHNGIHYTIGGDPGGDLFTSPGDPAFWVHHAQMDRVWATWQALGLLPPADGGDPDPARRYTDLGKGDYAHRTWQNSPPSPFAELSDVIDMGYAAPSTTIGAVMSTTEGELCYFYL

TtPPO [2] = target: T2, TtPPO (Thermothelomyces thermophilus, UniProt G2QLD3, G312N/L326A)
T2 sequence (G2QLD3 23-424 G312N/L326A): T1 sequence (G2QLD3 23-424 G312N) with L304A

TtPPO [3] = target: T3, TtPPO (Thermothelomyces thermophilus, UniProt G2QLD3)
T3 sequence (G2QLD3 23-424): T1 sequence (G2QLD3 23-424 G312N) with N290G

TtPPO [4] = target: T4, TtPPO (Thermothelomyces thermophilus, UniProt G2QLD3, L326A)
T4 sequence (G2QLD3 23-424 L326A): T1 sequence (G2QLD3 23-424 G312N) with N290G, L304A

TtPPO [5] = target: T5, TtPPO (Thermothelomyces thermophilus, UniProt G2QLD3, Y316V)
T5 sequence (G2QLD3 23-424 Y316V): T1 sequence (G2QLD3 23-424 G312N) with N290G, Y294V

TtPPO [6] = target: T6, TtPPO (Thermothelomyces thermophilus, UniProt G2QLD3, G312N/Y316V)
T6 sequence (G2QLD3 23-424 G312N/Y316V): T1 sequence (G2QLD3 23-424 G312N) with Y294V

Question: How did the Km (TtPPO [1]) turn out when `Oc1ccc(Cl)cc1O` [4-chlorocatechol] was run?
Answer: 3500 µM

Question: What about the Km (TtPPO [2]) of the same molecule?
Answer: 500 µM

Question: And the Km (TtPPO [3])?
Answer: 1800 µM

Question: And the Km (TtPPO [4])?
Answer: 400 µM

Question: What about the Km (TtPPO [5]) of the same molecule?
Answer: 2200 µM

Question: And the Km (TtPPO [6])?
Answer: 4300 µM
